The values that follow are results of earlier work, collected in patent publication US9884022B2, “Controlled release pharmaceutical compositions of tapentadol” (LUPIN LIMITED, priority 2010, dated 2018).

The conditions of this series: background statement on immediate release compositions.

In the case of `CCC(c1cccc(O)c1)C(C)CN(C)C` (stereo not shown) [tapentadol, 3-(3-dimethylamino-1-ethyl-2-methyl-propyl) phenol], the half life was 4 h.
